Source: paper PMC6888270 (International Journal of Molecular Sciences, 2019)
Where two headings read alike, the source gives them in different places. Square brackets hold non-standard residues; d marks the D form. Peptide text beside a SMILES is read from it. d(hArg(Et2)) = CCN=C(NCC)NCCCC[C@@H](N)C(=O)O; hArg(Et2) = CCN=C(NCC)NCCCC[C@H](N)C(=O)O; dPhe(4-Cl) = N[C@H](Cc1ccc(Cl)cc1)C(=O)O; d2Nal = N[C@H](Cc1ccc2ccccc2c1)C(=O)O; dCit = NC(=O)NCCC[C@@H](N)C(=O)O; d3Pal = N[C@H](Cc1cccnc1)C(=O)O

Experiments:
[1] = molecular target: T1, GnRH receptor (GnRHR) (Homo sapiens, UniProt P30968); assay: BRET (CAMYEL) measurement of cAMP accumulation in SH-SY5Y/GnRHR cells; type: cell-based; parameters: HA (hemagglutinin); expressed in transfected cells
T1 sequence (P30968 1-328): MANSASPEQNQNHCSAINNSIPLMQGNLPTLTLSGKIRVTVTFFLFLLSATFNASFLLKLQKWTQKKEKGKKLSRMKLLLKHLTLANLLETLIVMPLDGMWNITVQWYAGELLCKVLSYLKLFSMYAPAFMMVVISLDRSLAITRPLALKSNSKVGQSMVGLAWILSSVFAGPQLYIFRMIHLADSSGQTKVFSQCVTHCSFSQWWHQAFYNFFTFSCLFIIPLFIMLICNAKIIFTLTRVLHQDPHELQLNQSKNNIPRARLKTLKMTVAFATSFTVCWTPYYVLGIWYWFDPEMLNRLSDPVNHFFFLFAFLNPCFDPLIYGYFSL
Method: Different transfection protocols were followed, depending on the endpoint to be measured. For BRET experiments, 3 × 10^4 cells were transiently transfected using vectors expressing the cAMP-CAMYEL or the aequorin-Ca^2+ BRET biosensor-encoding cDNA [59], as appropriate, together with the GnRHR-HA-encoding vector. Transfections were performed in a 96-well plate using the Metafectene PRO reagent (Biontex, München, Germany), as previously described. […]
cAMP accumulation was measured in cells transiently expressing both the BRET-based cAMP biosensor CAMYEL [64] and GnRHR. […] BRET signals were detected at 475 and 535 nm wavelengths upon the addition of 5 µM Coelenterazine H (NanoLight Technologies). […]
(§1) BRET experiments were performed using a CLARIOstar plate reader equipped by a monocromator (BMG Labtech, Ortenberg, Germany), as previously described.
Data were plotted on graphs as means ± standard error of means (SEM). […] Data distributions were analyzed by D’Agostino and Pearson normality tests and inhibition of intracellular Ca^2+ increase by different concentrations of antagonist were compared using two-way analysis of variance (ANOVA), followed by Bonferroni post-test or Kruskal-Wallis and proper post-test. cAMP accumulation was represented as acceptor:donor emission ratio (induced BRET changes) after basal subtraction (untreated cells). […]

[2] = molecular target: T1, GnRH receptor (GnRHR); assay: BRET measurement of GnRH-induced intracellular Ca2+ increase in SH-SY5Y/GnRHR cells; type: cell-based; parameters: HA (hemagglutinin); expressed in transfected cells; conditions: means±SEM, n=6
Method: (§2) Different transfection protocols were followed, depending on the endpoint to be measured. For BRET experiments, 3 × 10^4 cells were transiently transfected using vectors expressing the cAMP-CAMYEL or the aequorin-Ca^2+ BRET biosensor-encoding cDNA [59], as appropriate, together with the GnRHR-HA-encoding vector. Transfections were performed in a 96-well plate using the Metafectene PRO reagent (Biontex, München, Germany), as previously described. 100 ng of the receptor-encoding vector + 100 ng of the BRET biosensor-encoding vector were used for co-transfecting HEK293 cells, while SH-SY5Y cells were co-transfected using 200 ng of the receptor-encoding vector + 100 ng of the BRET biosensor-encoding vector. 200 ng of the aequorin-Ca^2+ BRET biosensor-encoding cDNA were used for transfecting LβT2 cells. Each sample was prepared in duplicate, cultured for 48 h and serum-starved over-night before experiments.
(§3) To evaluate Ca^2+ increase, cells were incubated in Hank’s Balanced Salt Solution (HBSS) with Ca^2+ and Mg^2+, 1 mM Hepes and 5 µM Coelenterazine H (NanoLight Technologies, a division of Prolume, Ltd., Pinetop, AZ, USA), for 45 minutes, together with Cetrorelix, Ganirelix, Teverelix or vehicle, as appropriate. […] The EC50 was extrapolated from the curve obtained from each cell line. Cells treated by 5 µM of the sarco/endoplasmic reticulum Ca^2+ ATPase enzyme inhibitor, thapsigargin (Tocris Bioscience), served as positive control. Treatment by the vehicle (HBSS) was the negative control and used as a normalizer.
as §1
(§4) Data were plotted on graphs as means ± standard error of means (SEM). The kinetics of intracellular Ca^2+ increase was represented by the BRET biosensor emission after background subtraction (vehicle). […] Data distributions were analyzed by D’Agostino and Pearson normality tests and inhibition of intracellular Ca^2+ increase by different concentrations of antagonist were compared using two-way analysis of variance (ANOVA), followed by Bonferroni post-test or Kruskal-Wallis and proper post-test. cAMP accumulation was represented as acceptor:donor emission ratio (induced BRET changes) after basal subtraction (untreated cells). Dose-response curves were obtained by data interpolation using non-linear regressions and normalized as percentage of the maximal response. EC50s, as well as half-maximal inhibitory concentrations (IC50), were compared by t-test or Mann–Whitney U test, while results obtained by Western blotting and qRT-PCR data were compared by one-way ANOVA followed by Bonferroni post-test. Statistical differences were considered as significant for p < 0.05. These analyses were performed using the GraphPad Prism software (GraphPad Software Inc., San Diego, CA, USA).

[3] = system: β-catenin activation; assay: Immunofluorescence of active β-catenin in HEK293/GnRHR cells; type: cell-based, human; conditions: 1 µM GnRH + 1 µM antagonist, 1 h
Method: In order to evaluate the activation of phospho-proteins and β-catenin by Western blotting and immunofluorescence, 1 × 10^5 HEK293 cells were transiently transfected in a 24-well plate. To this purpose, 500 ng of GnRHR-HA-encoding vector diluted in 2 µL/well Lipofectamine® 2000 Transfection Reagent (Invitrogen) were used, according to the manufacturer’s instructions. Transfected HEK293 cells (HEK293/GnRHR) were cultured for 48 h and maintained over-night in serum-free medium before experiments.
3 × 10^4 HEK293/GnRHR and mock-transfected HEK293 cells (negative control) were plated on gelatine-treated slides. […] As a positive control, cells were treated for 16 h with 100 nM of the selective glycogen synthase kinase 3 (GSK3) inhibitor, CHIR99021 (Sigma-Aldrich), which stabilizes free cytosolic β-catenin [68]. After stimulations, cells were washed in PBS with Ca^2+/Mg^2+ and fixed for 20 min in paraformaldehyde 4%/PBS. Cell monolayers were washed by PBS and permeabilized using 0.1% Triton X-100. Samples were incubated in 4% bovine serum albumin (BSA)/PBS, for 1 h at room temperature (RT), before incubation with a mouse primary antibody targeting β-catenin (#05-665, 1:300 dilution in 4% BSA/PBS; Merck KGaA) overnight at 4 °C. Following washing, cells were then incubated with Cy3-conjugated anti-mouse IgG secondary antibody (#C2181, 1:200 dilution in 4% BSA/PBS; Sigma-Aldrich) for 1 h at RT. Cell monolayers were then stained for 10 min with 4′,6-diamidino-2-phenylindole (DAPI) (Sigma-Aldrich) and washed in PBS before slide treatment by polyvinyl alcohol mounting medium with 1,4-diazabicyclo[2.2.2]octane (DABCO®) (Sigma-Aldrich). Fluorescent signals were detected using the Eclipse Ni-E microscope (Nikon Instruments BV, Amsterdam, The Netherlands).

[4] = molecular target: T1, GnRH receptor (GnRHR); assay: BRET measurement of GnRH-induced intracellular Ca2+ increase in HEK293/GnRHR cells; type: cell-based; parameters: HA (hemagglutinin); expressed in transfected cells; host or cells: HEK293 (transient co-transfection with BRET biosensor); conditions: means ± SEM, n = 6
Method: as §2, §3, §1, §4

[5] = 3xEC50 GnRH + 100 pM antagonist
[6] = 3xEC50 GnRH + 100 nM antagonist
[7] = 3 × EC50 GnRH + 1 pM antagonist
[8] = 3 × EC50 GnRH + 10 pM antagonist
[9] = 3 × EC50 GnRH + 100 pM antagonist
[10] = 3 × EC50 GnRH + 1 nM antagonist
[11] = 3 × EC50 GnRH + 75 nM antagonist
[12] = 3 × EC50 GnRH + 100 nM antagonist
[13] = 3 × EC50 GnRH + 1 µM antagonist

| SMILES | IC50 [1] | AUC of the kinetics of intracellular Ca2+ response ([2]; 3xEC50 GnRH + 1 pM antagonist) | AUC of the kinetics of intracellular Ca2+ response ([2]; 3xEC50 GnRH + 10 pM antagonist) | AUC of the kinetics of intracellular Ca2+ response [2, 5] | AUC of the kinetics of intracellular Ca2+ response ([2]; 3xEC50 GnRH + 1 nM antagonist) | AUC of the kinetics of intracellular Ca2+ response ([2]; 3xEC50 GnRH + 10 nM antagonist) | AUC of the kinetics of intracellular Ca2+ response ([2]; 3xEC50 GnRH + 20 nM antagonist) | AUC of the kinetics of intracellular Ca2+ response [2, 6] | AUC of the kinetics of intracellular Ca2+ response ([2]; 3xEC50 GnRH + 1 uM antagonist) | effect on GnRH-induced active β-catenin staining [3] | AUC of the kinetics of intracellular Ca2+ response [4, 7] | AUC of the kinetics of intracellular Ca2+ response [4, 8] | AUC of the kinetics of intracellular Ca2+ response [4, 9] | AUC of the kinetics of intracellular Ca2+ response [4, 10] | AUC of the kinetics of intracellular Ca2+ response [4, 11] | AUC of the kinetics of intracellular Ca2+ response [4, 12] | AUC of the kinetics of intracellular Ca2+ response [4, 13] | IC50 ([1]; read-out: IC50 of inhibition of GnRH-induced cAMP accumulation) | AUC of the kinetics of intracellular Ca2+ response ([4]; 3 × EC50 GnRH + 10 nM antagonist) |
| --- | --- | --- | --- | --- | --- | --- | --- | --- | --- | --- | --- | --- | --- | --- | --- | --- | --- | --- | --- |
| CC(=O)N[C@H](Cc1ccc2ccccc2c1)C(=O)N[C@H](Cc1ccc(Cl)cc1)C(=O)N[C@H](Cc1cccnc1)C(=O)N[C@@H](CO)C(=O)N[C@@H](Cc1ccc(O)cc1)C(=O)N[C@H](CCCNC(N)=O)C(=O)N[C@@H](CC(C)C)C(=O)N[C@@H](CCCNC(=N)N)C(=O)N1CCC[C@H]1C(=O)N[C@H](C)C(N)=O [Cetrorelix] (Ac-[d2Nal][dPhe(4-Cl)][d3Pal]SY[dCit]LRP[dA]-NH2) | 1.56 ± 2.49 nM | 105586±22643 | 103653±11947 | 118914±31558 | 81413±26479 | 81282±26769 | 58382±8030 | 46414±15714 | 13355±4381 | reduced | 78,113 ± 29,979 | 124,981 ± 33,684 | 126,243 ± 34,982 | 71,127 ± 25,268 | 18,632 ± 4423 | 8946 ± 3296 | 3264 ± 3024 |  |  |
| CCN=C(NCC)NCCCC[C@H](NC(=O)[C@H](CC(C)C)NC(=O)[C@@H](CCCCNC(=NCC)NCC)NC(=O)[C@H](Cc1ccc(O)cc1)NC(=O)[C@H](CO)NC(=O)[C@@H](Cc1cccnc1)NC(=O)[C@@H](Cc1ccc(Cl)cc1)NC(=O)[C@@H](Cc1ccc2ccccc2c1)NC(C)=O)C(=O)N1CCC[C@H]1C(=O)N[C@H](C)C(N)=O [Ganirelix] (Ac-[d2Nal][dPhe(4-Cl)][d3Pal]SY[d(hArg(Et2))]L[hArg(Et2)]P[dA]-NH2; N-terminus and C-terminus assumed) |  | 93877±14161 | 113983±12281 | 116076±24125 | 75460±15613 | 83904±19566 | 52343±8665 | 82720±17902 | 6523±3056 | reduced | 76,189 ± 18,564 | 91,896 ± 21,766 | 101,943 ± 27,388 | 66,665 ± 16,035 | 43,870 ± 4193 | 34,734 ± 13,731 | 3346 ± 2977 | 16.6 ± 3.76 nM | 73,164 ± 16,237 |
